One data set relates to rats. The experiment in a line: Place conditioning. Type of data set: in vivo. The conditions noted are these: rat.
The subject of another data set is Y335A mutant DAT. Conditions: transfected cells, cited from earlier work.
The target of a further data set is K+ Channel hERG (Homo sapiens, UniProt Q12809). Put plainly: receptor screen, K+ Channel hERG. Conditions: from Ki values of Table 2. In kind it is binding. (Block of hERG is tested as a sign of cardiac risk.)
Data set [1] deals with extracellular DA levels in the NAC shell. Put plainly: In vivo microdialysis, extracellular DA in NAC shell. The conditions noted are these: rat; for rate of increase in DA concentrations: ±SEM; for DA concentrations in NAC shell at times of conditioning sessions compared with 3.0 mg/kg cocaine (165% of basal): pretreatment 0, 45, 90 min.
For the next data set, the system named is DAT. Put plainly: radioligand binding, DAT. Conditions: from Ki values of Table 2.
[2] abbreviates: i.p. (1 to 10 mg/kg), injected immediately before conditioning sessions.
Where [3] appears, read: 10 mg/kg i.p., initial phase, first 30 min (cocaine: up to the maximum).

Each structure is given as a SMILES string. Several values for one entry are separate records, joined by “and”; a condition that tells them apart may be missing. Equal entries are not always repeated. Some results are limits rather than exact numbers.

Sequence of K+ Channel hERG (Q12809 whole entry): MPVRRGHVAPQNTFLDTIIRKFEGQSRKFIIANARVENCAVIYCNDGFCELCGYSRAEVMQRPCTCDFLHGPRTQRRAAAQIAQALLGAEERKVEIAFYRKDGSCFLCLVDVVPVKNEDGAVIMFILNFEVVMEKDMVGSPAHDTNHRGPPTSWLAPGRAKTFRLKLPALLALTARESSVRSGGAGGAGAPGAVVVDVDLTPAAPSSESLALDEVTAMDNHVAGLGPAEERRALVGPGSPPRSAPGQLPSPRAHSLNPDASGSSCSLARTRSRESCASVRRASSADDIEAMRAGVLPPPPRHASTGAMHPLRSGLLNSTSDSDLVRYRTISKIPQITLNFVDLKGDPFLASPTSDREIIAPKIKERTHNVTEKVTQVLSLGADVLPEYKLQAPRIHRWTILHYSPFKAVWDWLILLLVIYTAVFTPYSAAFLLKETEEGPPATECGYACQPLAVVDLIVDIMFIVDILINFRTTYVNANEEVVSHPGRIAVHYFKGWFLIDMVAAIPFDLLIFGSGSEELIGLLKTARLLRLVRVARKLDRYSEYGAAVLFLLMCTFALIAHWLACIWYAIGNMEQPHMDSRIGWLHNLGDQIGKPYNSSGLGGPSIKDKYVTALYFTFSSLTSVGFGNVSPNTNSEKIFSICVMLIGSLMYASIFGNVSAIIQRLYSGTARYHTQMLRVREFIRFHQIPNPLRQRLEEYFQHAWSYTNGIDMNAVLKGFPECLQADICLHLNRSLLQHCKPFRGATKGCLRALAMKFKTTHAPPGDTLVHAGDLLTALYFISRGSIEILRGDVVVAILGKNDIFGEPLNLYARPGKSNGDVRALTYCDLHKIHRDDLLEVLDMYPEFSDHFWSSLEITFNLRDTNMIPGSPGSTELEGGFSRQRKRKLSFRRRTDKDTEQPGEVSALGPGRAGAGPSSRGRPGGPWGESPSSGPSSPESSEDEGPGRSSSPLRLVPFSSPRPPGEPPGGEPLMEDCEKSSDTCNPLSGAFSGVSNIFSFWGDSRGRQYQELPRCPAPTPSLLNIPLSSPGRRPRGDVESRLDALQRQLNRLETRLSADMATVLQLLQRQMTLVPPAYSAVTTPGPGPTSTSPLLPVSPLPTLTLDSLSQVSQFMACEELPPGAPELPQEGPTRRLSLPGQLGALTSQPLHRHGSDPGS

In the case of `CCOC(=O)[C@@H]1C(OC(c2ccc(Cl)cc2)c2ccc(Cl)cc2)C[C@@H]2CC[C@H]1N2C` (mixture of isomers) [MFZ 4-86, (±)-2α-carboethoxy-3R-[bis(4-chlorophenyl)methoxy]tropane], in the data set with rats (setting [2]), the “place conditioning (time allocated to compound-paired compartment)” value (“place conditioning” below) is recorded as “without significant place-conditioning effects”. Also, the “potency in Y335A mutant DAT relative to wild-type DAT (fold lower)” value in the data set with Y335A mutant DAT (ref Loland et al. 2008) is recorded as approximately 13 fold. Further, the “selectivity K+ hERG channel over the DAT” value on K+ Channel hERG is ~ 20 fold. Besides, in data set [1] (1.0 mg/kg i.p.), the “effect on dialysate DA levels from the NAC shell” value (from here on “effect on dialysate DA levels”) was “increases in DA that did not achieve statistical significance”. For the same molecule, in data set [1] (3.0 mg/kg i.p.), the “effect on dialysate DA levels” value is “also increased DA concentrations, though less than at the higher dose”; the “time after injection at which DA exceeded 165% of basal values” was determined as 50 min; the “DA concentrations in NAC shell at times of conditioning sessions compared with 3.0 mg/kg cocaine (165% of basal)” value (“DA concentrations in NAC shell … (165% of basal)” below) is “levels that approximated those of cocaine in all but the first 30 min”. In data set [1] (3.0 mg/kg i.p., initial phase (cocaine: up to the maximum)), the “rate of increase in DA concentrations” value was 3.05 (±0.270) %/min. In data set [1] (10 mg/kg i.p.), the “duration of increase in DA levels” value is “remained elevated for the entire five-hr session”, the “time after injection at which DA exceeded 165% of basal values” turned out to be 20 min and the “time after injection until which DA increase continued (peak)” value is given as “about 120 min”. Moreover, the “rate of increase in DA concentrations” value in data set [1] (setting [3]) is given as 6.74 (±0.371) %/min. For the same molecule, the “DA concentrations in NAC shell … (165% of basal)” value in data set [1] (10.0 mg/kg i.p.) was “levels that exceeded those of the 3.0 mg/kg dose of cocaine at all pretreatment times”.

Consider `COC(=O)[C@@H]1C(OC(c2ccc(Cl)cc2)c2ccc(Cl)cc2)C[C@@H]2CC[C@H]1N2C` (mixture of isomers) [MFZ 4-87, (±)-2α-carbomethoxy-3R-[bis(4-chlorophenyl)methoxy]tropane], for which the “place conditioning” value in the data set on rats (setting [2]) is recorded as “did not produce a change in allocation of time to the compound-paired compartment”. For the same molecule, on K+ Channel hERG, the “selectivity K+ hERG channel over the DAT” value is recorded as ~ 20 fold. For the same molecule, the “increase in dialysate DA concentrations” value in data set [1] (1.0 mg/kg i.p.) was ≤ 165 % of basal levels. For the same molecule, the “DA concentrations in NAC shell … (165% of basal)” value in data set [1] (3.0 mg/kg i.p.) is listed as “levels that approximated those of cocaine in all but the first 30 min”. In data set [1] (3.0 mg/kg i.p., slightly exceeded), the “increase in dialysate DA concentrations” value was “exceeded 165 % of basal levels”. For the same molecule, in data set [1] (10 mg/kg i.p.), the “duration of increase in DA levels” value was not below 4 h, the “maximum / maintained DA concentration” value is reported as “about 350 % of basal levels” and the “time after injection until which DA increase continued (peak)” value is recorded as “about 160 min”. Moreover, the “rate of increase in DA concentrations” value in data set [1] (setting [3]) is given as 5.59 (±0.712) %/min. Further, the “DA concentrations in NAC shell … (165% of basal)” value in data set [1] (10.0 mg/kg i.p.) is “levels that exceeded those of the 3.0 mg/kg dose of cocaine at all pretreatment times”. In the data set with DAT, the “selectivity for the DAT compared to any other site assayed” value was ~ 30 fold.

For the molecule `COC(=O)[C@H]1[C@@H](OC(=O)c2ccccc2)C[C@@H]2CC[C@H]1N2C` [cocaine, (−)-cocaine, reference compound], the “place conditioning” value in the data set with rats (i.p., each dose tested, injected immediately before sessions) is given as “significant place conditioning”. Further, the “potency in Y335A mutant DAT relative to wild-type DAT” value in the data set with Y335A mutant DAT (ref Loland et al. 2002) is on record as “reduced by about two orders of magnitude”. Further, the “effect on dialysate DA levels” value in data set [1] (3.0 mg/kg i.p.) and in data set [1] (10 mg/kg i.p.) was “significantly increased extracellular DA concentrations” each time. For the same molecule, the “rate of increase in DA concentrations” value in data set [1] (3.0 mg/kg i.p., initial phase (cocaine: up to the maximum), 3 mg/kg) is 4.84 (±0.359) %/min and 4.84 %/min; in data set [1] (setting [3]), 11.4 (±0.860) %/min.

The values are drawn from PMC3758386 (Psychopharmacology, 2013).
